According to ChEMBL document CHEMBL2311352, “Discovery of 4-phenyl-2-phenylaminopyridine based TNIK inhibitors” (Bioorg Med Chem Lett, 2013):

Tests used:
[1] = molecular target: Aurora kinase C (Homo sapiens) (UniProt Q9UQB9); experiment: Inhibition of aurora C (unknown origin) at 1 uM
[2] = molecular target: Homeodomain-interacting protein kinase 3 (Homo sapiens) (UniProt Q9H422); experiment: Inhibition of HIPK3 (unknown origin) at 1 uM
[3] = molecular target: BDNF/NT-3 growth factors receptor (Homo sapiens) (UniProt Q16620); experiment: Inhibition of TRKB (unknown origin) at 1 uM
Chain of BDNF/NT-3 growth factors receptor (Homo sapiens) (Q16620 32-822 limits assumed): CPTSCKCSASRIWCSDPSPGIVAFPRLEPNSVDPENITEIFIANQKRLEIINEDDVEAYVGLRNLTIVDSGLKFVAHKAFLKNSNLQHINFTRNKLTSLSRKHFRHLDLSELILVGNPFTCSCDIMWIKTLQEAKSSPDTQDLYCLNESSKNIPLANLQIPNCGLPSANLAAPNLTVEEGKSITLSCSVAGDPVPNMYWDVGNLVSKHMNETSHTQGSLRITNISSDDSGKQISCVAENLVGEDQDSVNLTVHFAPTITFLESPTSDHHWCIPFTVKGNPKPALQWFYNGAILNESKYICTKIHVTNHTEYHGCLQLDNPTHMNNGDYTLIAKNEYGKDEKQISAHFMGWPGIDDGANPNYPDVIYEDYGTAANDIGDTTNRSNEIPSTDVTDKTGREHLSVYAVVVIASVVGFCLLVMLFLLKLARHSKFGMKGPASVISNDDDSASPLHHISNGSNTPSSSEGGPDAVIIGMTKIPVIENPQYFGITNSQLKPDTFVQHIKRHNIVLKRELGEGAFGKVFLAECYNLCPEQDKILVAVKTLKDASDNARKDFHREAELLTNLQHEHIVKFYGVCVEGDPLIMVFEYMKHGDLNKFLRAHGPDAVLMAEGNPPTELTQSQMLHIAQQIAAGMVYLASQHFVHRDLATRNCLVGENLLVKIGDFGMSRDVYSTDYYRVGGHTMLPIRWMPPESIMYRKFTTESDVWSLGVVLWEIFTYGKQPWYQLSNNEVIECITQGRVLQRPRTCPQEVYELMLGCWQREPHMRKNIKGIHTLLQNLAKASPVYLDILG

[4] = molecular target: Protein-tyrosine kinase 6 (Homo sapiens) (UniProt Q13882); experiment: Inhibition of BRK (unknown origin) at 1 uM
[5] = molecular target: Serine/threonine-protein kinase 26 (Homo sapiens) (UniProt Q9P289); experiment: Inhibition of MST4 (unknown origin) at 1 uM
Chain of Serine/threonine-protein kinase 26 (Homo sapiens) (Q9P289 2-416 limits assumed): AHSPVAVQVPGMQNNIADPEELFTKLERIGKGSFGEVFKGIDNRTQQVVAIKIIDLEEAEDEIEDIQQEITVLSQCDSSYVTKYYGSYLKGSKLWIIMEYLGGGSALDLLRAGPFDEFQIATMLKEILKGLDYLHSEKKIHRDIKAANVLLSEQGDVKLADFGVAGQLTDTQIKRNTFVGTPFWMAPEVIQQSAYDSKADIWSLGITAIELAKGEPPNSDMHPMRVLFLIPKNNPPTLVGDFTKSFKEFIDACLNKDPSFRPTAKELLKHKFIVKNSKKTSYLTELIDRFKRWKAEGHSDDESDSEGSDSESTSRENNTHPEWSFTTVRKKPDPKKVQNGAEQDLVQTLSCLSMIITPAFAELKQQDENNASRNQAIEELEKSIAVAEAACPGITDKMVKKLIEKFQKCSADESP

[6] = molecular target: Vascular endothelial growth factor receptor 2 (Homo sapiens) (UniProt P35968); experiment: Inhibition of VEGFR2 (unknown origin) at 1 uM
[7] = molecular target: NT-3 growth factor receptor (Homo sapiens) (UniProt Q16288); experiment: Inhibition of TRKC (unknown origin) at 1 uM
[8] = molecular target: Protein kinase C epsilon (Homo sapiens) (UniProt Q02156); experiment: Inhibition of PKCepsilon (unknown origin) at 1 uM
[9] = molecular target: Tyrosine-protein kinase Lck (Homo sapiens) (UniProt P06239); experiment: Inhibition of LCK (unknown origin) at 1 uM
[10] = molecular target: Tyrosine-protein kinase SYK (Homo sapiens) (UniProt P43405); experiment: Inhibition of SYK (unknown origin) at 1 uM
[11] = molecular target: Proto-oncogene tyrosine-protein kinase receptor Ret (Homo sapiens) (UniProt P07949); experiment: Inhibition of RET (unknown origin) at 1 uM
[12] = molecular target: Fibroblast growth factor receptor 2 (Homo sapiens) (UniProt P21802); experiment: Inhibition of FGFR2 (unknown origin) at 1 uM
[13] = molecular target: Insulin-like growth factor 1 receptor (Homo sapiens) (UniProt P08069); experiment: Inhibition of IGF1R (unknown origin) at 1 uM
[14] = molecular target: Focal adhesion kinase 1 (Homo sapiens) (UniProt Q05397); experiment: Inhibition of FAK (unknown origin) at 1 uM
[15] = molecular target: Ribosomal protein S6 kinase beta-1 (Homo sapiens) (UniProt P23443); experiment: Inhibition of p70S6K (unknown origin) at 1 uM
[16] = molecular target: Dual specificity mitogen-activated protein kinase kinase 2 (Homo sapiens) (UniProt P36507); experiment: Inhibition of MEK2 (unknown origin) at 1 uM
[17] = molecular target: Ephrin type-A receptor 1 (Homo sapiens) (UniProt P21709); experiment: Inhibition of EPHA1 (unknown origin) at 1 uM
[18] = molecular target: Tyrosine-protein kinase ABL1 (Homo sapiens) (UniProt P00519); experiment: Inhibition of ABL1 (unknown origin) at 1 uM
[19] = molecular target: Ephrin type-A receptor 7 (Homo sapiens) (UniProt Q15375); experiment: Inhibition of EPHA7 (unknown origin) at 1 uM
[20] = molecular target: Ephrin type-B receptor 1 (Homo sapiens) (UniProt P54762); experiment: Inhibition of EPHB1 (unknown origin) at 1 uM
[21] = molecular target: Serine/threonine-protein kinase Nek1 (Homo sapiens) (UniProt Q96PY6); experiment: Inhibition of NEK1 (unknown origin) at 1 uM
[22] = molecular target: Fibroblast growth factor receptor 3 (Homo sapiens) (UniProt P22607); experiment: Inhibition of FGFR3 (unknown origin) at 1 uM
[23] = molecular target: Aurora kinase B (Homo sapiens) (UniProt Q96GD4); experiment: Inhibition of aurora B (unknown origin) at 1 uM
[24] = molecular target: Mast/stem cell growth factor receptor Kit (Homo sapiens) (UniProt P10721); experiment: Inhibition of c-KIT (unknown origin) at 1 uM
Chain of Mast/stem cell growth factor receptor Kit (Homo sapiens) (P10721 whole entry): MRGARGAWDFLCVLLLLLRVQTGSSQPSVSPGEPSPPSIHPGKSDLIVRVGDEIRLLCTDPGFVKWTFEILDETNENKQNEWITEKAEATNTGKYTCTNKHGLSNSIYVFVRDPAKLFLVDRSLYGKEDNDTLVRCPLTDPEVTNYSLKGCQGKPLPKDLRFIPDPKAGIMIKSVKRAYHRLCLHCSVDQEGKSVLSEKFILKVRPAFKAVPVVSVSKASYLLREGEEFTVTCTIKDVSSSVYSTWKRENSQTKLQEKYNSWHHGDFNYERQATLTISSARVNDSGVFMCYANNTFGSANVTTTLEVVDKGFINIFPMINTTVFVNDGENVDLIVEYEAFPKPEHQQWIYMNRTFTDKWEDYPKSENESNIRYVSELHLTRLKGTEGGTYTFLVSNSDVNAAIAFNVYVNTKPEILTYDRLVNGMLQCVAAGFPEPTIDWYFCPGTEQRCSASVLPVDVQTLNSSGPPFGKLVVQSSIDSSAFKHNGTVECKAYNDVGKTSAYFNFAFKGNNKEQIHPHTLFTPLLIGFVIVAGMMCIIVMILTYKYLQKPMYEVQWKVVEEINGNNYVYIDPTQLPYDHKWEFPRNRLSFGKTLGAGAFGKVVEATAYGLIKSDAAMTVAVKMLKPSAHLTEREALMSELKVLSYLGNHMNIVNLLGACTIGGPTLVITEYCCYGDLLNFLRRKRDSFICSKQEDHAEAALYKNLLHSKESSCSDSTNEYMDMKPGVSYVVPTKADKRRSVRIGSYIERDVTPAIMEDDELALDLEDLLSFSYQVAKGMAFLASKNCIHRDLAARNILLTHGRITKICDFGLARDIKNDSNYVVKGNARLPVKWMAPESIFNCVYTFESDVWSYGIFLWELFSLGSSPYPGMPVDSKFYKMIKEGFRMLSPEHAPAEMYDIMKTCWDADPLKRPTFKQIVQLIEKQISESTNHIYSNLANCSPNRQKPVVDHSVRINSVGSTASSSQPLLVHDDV

[25] = molecular target: Vascular endothelial growth factor receptor 3 (Homo sapiens) (UniProt P35916); experiment: Inhibition of VEGFR3 (unknown origin) at 1 uM
[26] = molecular target: Casein kinase II subunit alpha (Homo sapiens) (UniProt P68400); experiment: Inhibition of CK2alpha (unknown origin) at 1 uM
Chain of Casein kinase II subunit alpha (Homo sapiens) (P68400 whole entry, looked up): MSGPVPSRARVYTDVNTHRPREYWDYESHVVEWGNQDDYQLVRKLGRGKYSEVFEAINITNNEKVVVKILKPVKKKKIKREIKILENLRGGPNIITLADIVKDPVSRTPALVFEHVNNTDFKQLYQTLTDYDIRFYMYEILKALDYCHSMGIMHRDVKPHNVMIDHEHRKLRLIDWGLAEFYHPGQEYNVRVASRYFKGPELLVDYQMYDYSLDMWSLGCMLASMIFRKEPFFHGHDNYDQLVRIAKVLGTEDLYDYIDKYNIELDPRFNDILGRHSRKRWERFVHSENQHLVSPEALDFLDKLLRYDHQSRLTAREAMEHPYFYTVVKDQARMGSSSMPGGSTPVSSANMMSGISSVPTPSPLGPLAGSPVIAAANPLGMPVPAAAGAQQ

[27] = molecular target: Protein kinase C delta type (Homo sapiens) (UniProt Q05655); experiment: Inhibition of PKCdelta (unknown origin) at 1 uM
[28] = molecular target: TRAF2 and NCK-interacting protein kinase (Homo sapiens, UniProt Q9UKE5); experiment: Ratio of IC50 for TNIK-mediated TCF4/[…] transcription in human HCT116 cells to IC50 for TNIK (unknown origin); assay type: cell-based; conditions: HCT-116
Chain of TRAF2 and NCK-interacting protein kinase (Q9UKE5 whole entry, looked up): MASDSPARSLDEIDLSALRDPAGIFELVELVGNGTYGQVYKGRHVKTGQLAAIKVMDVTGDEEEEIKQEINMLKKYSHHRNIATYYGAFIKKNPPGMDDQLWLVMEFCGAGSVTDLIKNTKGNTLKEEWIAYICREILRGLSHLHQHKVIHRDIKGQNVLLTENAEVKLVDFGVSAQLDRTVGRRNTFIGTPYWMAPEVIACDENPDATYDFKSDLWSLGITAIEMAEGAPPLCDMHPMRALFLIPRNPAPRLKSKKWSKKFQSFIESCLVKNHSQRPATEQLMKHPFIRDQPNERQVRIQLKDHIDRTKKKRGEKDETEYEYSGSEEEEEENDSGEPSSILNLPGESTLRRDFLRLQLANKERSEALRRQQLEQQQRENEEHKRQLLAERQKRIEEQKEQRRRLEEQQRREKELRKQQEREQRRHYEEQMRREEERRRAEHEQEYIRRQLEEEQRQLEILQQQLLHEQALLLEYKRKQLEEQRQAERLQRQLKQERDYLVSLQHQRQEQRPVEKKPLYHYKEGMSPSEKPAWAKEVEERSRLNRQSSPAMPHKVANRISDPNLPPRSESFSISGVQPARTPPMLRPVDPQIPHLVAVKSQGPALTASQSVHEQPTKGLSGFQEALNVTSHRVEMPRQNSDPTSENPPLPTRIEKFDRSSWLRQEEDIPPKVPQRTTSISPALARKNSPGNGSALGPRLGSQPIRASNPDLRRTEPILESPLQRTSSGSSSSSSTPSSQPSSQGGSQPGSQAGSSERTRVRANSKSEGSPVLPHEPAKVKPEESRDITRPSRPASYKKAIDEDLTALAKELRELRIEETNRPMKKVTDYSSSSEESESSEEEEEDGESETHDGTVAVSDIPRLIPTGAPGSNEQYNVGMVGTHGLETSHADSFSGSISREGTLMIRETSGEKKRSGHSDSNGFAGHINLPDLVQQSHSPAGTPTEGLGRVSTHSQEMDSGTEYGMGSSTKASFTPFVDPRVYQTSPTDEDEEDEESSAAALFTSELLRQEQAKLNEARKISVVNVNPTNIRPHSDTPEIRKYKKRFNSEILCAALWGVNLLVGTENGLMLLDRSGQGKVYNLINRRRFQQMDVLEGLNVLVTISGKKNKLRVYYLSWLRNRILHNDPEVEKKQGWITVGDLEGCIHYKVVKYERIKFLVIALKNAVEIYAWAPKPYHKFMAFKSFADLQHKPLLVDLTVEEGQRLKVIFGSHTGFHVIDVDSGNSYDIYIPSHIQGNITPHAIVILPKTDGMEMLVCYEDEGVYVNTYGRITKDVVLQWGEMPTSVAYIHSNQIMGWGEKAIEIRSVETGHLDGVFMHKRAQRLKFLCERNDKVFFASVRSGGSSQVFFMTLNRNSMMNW

[29] = molecular target: Tyrosine-protein kinase JAK1 (Homo sapiens) (UniProt P23458); experiment: Inhibition of JAK1 (unknown origin) at 1 uM
[30] = molecular target: Serine/threonine-protein kinase Chk2 (Homo sapiens) (UniProt O96017); experiment: Inhibition of CHK2 (unknown origin) at 1 uM
[31] = molecular target: Vascular endothelial growth factor receptor 1 (Homo sapiens) (UniProt P17948); experiment: Inhibition of VEGFR1 (unknown origin) at 1 uM
[32] = molecular target: Tyrosine-protein kinase HCK (Homo sapiens) (UniProt P08631); experiment: Inhibition of HCK (unknown origin) at 1 uM
Chain of Tyrosine-protein kinase HCK (Homo sapiens) (P08631 2-526 limits assumed): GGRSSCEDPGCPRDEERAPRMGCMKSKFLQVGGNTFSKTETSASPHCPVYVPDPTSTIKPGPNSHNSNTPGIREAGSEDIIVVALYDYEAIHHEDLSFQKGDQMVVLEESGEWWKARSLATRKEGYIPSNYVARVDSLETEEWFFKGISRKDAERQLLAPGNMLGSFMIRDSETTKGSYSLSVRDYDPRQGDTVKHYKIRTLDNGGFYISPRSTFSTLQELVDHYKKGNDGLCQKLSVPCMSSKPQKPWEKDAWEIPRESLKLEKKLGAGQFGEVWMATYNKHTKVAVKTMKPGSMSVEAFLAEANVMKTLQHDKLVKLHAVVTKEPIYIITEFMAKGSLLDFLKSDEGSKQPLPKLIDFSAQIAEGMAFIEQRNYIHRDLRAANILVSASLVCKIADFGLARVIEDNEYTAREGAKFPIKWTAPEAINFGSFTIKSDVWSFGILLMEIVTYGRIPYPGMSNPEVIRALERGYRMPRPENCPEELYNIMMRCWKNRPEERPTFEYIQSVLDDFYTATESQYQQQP

[33] = molecular target: Homeodomain-interacting protein kinase 4 (Homo sapiens) (UniProt Q8NE63); experiment: Inhibition of HIPK4 (unknown origin) at 1 uM
Chain of Homeodomain-interacting protein kinase 4 (Homo sapiens) (Q8NE63 whole entry): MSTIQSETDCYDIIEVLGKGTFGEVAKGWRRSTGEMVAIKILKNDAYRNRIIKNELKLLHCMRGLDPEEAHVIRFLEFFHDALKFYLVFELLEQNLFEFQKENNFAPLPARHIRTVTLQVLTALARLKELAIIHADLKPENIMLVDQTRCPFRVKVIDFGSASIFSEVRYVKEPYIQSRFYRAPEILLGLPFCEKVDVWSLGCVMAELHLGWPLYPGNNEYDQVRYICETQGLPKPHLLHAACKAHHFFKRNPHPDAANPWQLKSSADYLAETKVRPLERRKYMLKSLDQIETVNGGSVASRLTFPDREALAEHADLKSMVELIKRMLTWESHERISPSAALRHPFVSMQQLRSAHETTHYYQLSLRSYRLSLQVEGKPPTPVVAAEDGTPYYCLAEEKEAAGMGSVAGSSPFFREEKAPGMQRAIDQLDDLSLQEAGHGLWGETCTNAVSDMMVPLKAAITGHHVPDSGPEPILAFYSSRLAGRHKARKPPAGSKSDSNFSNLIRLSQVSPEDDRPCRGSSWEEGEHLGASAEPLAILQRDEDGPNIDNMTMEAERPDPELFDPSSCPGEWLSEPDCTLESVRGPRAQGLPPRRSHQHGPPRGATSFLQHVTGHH

[34] = molecular target: Fibroblast growth factor receptor 1 (Homo sapiens) (UniProt P11362); experiment: Inhibition of FGFR1 (unknown origin) at 1 uM
[35] = molecular target: Dual specificity mitogen-activated protein kinase kinase 1 (Homo sapiens) (UniProt Q02750); experiment: Inhibition of MEK1 (unknown origin) at 1 uM
[36] = Apparent permeability across basolateral to apical side in human Caco2 cells; assay type: ADME, cell-based; conditions: Caco-2
[37] = molecular target: Inhibitor of nuclear factor kappa-B kinase subunit epsilon (Homo sapiens) (UniProt Q14164); experiment: Inhibition of IKKepsilon (unknown origin) at 1 uM
[38] = molecular target: Death-associated protein kinase 1 (Homo sapiens) (UniProt P53355); experiment: Inhibition of DAPK1 (unknown origin) at 1 uM
[39] = molecular target: Serine/threonine-protein kinase Chk1 (Homo sapiens) (UniProt O14757); experiment: Inhibition of CHK1 (unknown origin) at 1 uM
[40] = molecular target: Tyrosine-protein kinase JAK3 (Homo sapiens) (UniProt P52333); experiment: Inhibition of JAK3 (unknown origin) at 1 uM
[41] = Apparent permeability across apical to basolateral side in human Caco2 cells; assay type: ADME, cell-based; conditions: Caco-2
[42] = molecular target: Protein kinase C theta type (Homo sapiens) (UniProt Q04759); experiment: Inhibition of PKCtheta (unknown origin) at 1 uM
[43] = molecular target: Tyrosine-protein kinase ABL2 (Homo sapiens) (UniProt P42684); experiment: Inhibition of ABL2 (unknown origin) at 1 uM
[44] = molecular target: CDK9/cyclin T1 (Homo sapiens) (UniProt O60563+P50750); experiment: Inhibition of CDK9/cyclin T1 (unknown origin) at 1 uM; assay type: protein-complex assay
[45] = molecular target: Receptor-type tyrosine-protein kinase FLT3 (Homo sapiens) (UniProt P36888); experiment: Inhibition of FLT3 (unknown origin) at 1 uM

**Q.** For COc1cc(Nc2ncc(Cl)c(-c3cccc(CC#N)c3)n2)ccc1N1CCN(C)CC1, which inhibition [1] is on record?
**A.** > 80%

**Q.** What about the inhibition [2] of the same compound?
**A.** > 80%

**Q.** What about the inhibition [3] of the same compound?
**A.** > 80%

**Q.** And the inhibition [4]?
**A.** > 80%

**Q.** What about the inhibition [5] of the same compound?
**A.** 50%

**Q.** And the inhibition [6]?
**A.** > 95%

**Q.** And the inhibition [7]?
**A.** > 95%

**Q.** What about the inhibition [8] of the same compound?
**A.** 50%

**Q.** What about the inhibition [9] of the same compound?
**A.** > 80%

**Q.** And the inhibition [10]?
**A.** > 80%

**Q.** What about the inhibition [11] of the same compound?
**A.** > 95%

**Q.** And the inhibition [12]?
**A.** > 95%

**Q.** And the inhibition [13]?
**A.** > 80%

**Q.** And the inhibition [14]?
**A.** 50%

**Q.** And the inhibition [15]?
**A.** > 95%

**Q.** What about the inhibition [16] of the same compound?
**A.** > 80%

**Q.** And the inhibition [17]?
**A.** 50%

**Q.** What about the inhibition [18] of the same compound?
**A.** > 80%

**Q.** What about the inhibition [19] of the same compound?
**A.** 50%

**Q.** And the inhibition [20]?
**A.** 50%

**Q.** What about the inhibition [21] of the same compound?
**A.** > 80%

**Q.** And the inhibition [22]?
**A.** > 95%

**Q.** And the inhibition [23]?
**A.** > 80%

**Q.** And the inhibition [24]?
**A.** > 80%

**Q.** What about the inhibition [25] of the same compound?
**A.** > 95%

**Q.** What about the inhibition [26] of the same compound?
**A.** > 80%

**Q.** And the inhibition [27]?
**A.** 50%

**Q.** And the Ratio IC50 [28]?
**A.** 5.4

**Q.** What about the inhibition [29] of the same compound?
**A.** > 80%

**Q.** And the inhibition [30]?
**A.** > 80%

**Q.** What about the inhibition [31] of the same compound?
**A.** > 95%

**Q.** What about the inhibition [32] of the same compound?
**A.** 50%

**Q.** And the inhibition [33]?
**A.** > 80%

**Q.** And the inhibition [34]?
**A.** > 95%

**Q.** And the inhibition [35]?
**A.** > 80%

**Q.** And the Papp B→A [36]?
**A.** 7.7 ×10⁻⁶ cm/s

**Q.** What about the inhibition [37] of the same compound?
**A.** > 95%

**Q.** And the inhibition [38]?
**A.** > 80%

**Q.** And the inhibition [39]?
**A.** > 80%

**Q.** What about the inhibition [40] of the same compound?
**A.** > 95%

**Q.** What about the Papp A→B [41] of the same compound?
**A.** 8 ×10⁻⁶ cm/s

**Q.** And the inhibition [42]?
**A.** 50%

**Q.** What about the inhibition [43] of the same compound?
**A.** > 80%

**Q.** And the inhibition [44]?
**A.** > 50%

**Q.** And the inhibition [45]?
**A.** > 95%
